Assay results taken from ChEMBL document CHEMBL1150005, “Reduced amide bond neurotensin 813 mimetics with potent in vivo activity” (Bioorg Med Chem Lett, 1995).
Numbered stars: 1 amine (or outer) side, 2 acyl side, 3 side chain; on linkers, the order of the positions; unused ones are H or OH. Square brackets hold non-standard residues; d marks the D form. Peptide text beside a SMILES is read from it. * marks the point of attachment. X3 = NCCCC[C@@H](C(=O)[*:2])N(C[C@@H](N)CCCN=C(N)N)[*:1]; X1 = NCCCC[C@H](N)CN([C@@H](CCCCN)C(=O)[*:2])[*:1]; X2 = NCCCCCCN([C@@H](CCCCN)C(=O)[*:2])[*:1]; X6 = N=C(N)NCCCC(CCCNC(=N)N)C(=O)*; X7 = NC(N)=NCCCC(CCCN=C(N)N)C(=O)*; NMeR = CN[C@@H](CCCNC(=N)N)C(=O)O; Tle = CC(C)(C)[C@H](N)C(=O)O; X4 = NCCCCC(CCCCN)C(=O)*; X5 = NCCCC(CCCN)C(=O)*

Legend:
[1] = target: T1, Neurotensin receptor type 1 (Mus musculus, UniProt O88319); assay: Compound was tested in vitro for its binding affinity against Neurotensin Receptor […]
Mus musculus [2] = assay: Compound was tested in vivo for its ability to inhibit spontaneous locomotor activity of mice after intraperitoneal administration; type: functional; conditions: ip
[3] = target: T1, Neurotensin receptor type 1; assay: Binding affinity for Neurotensin Receptor
Mus musculus [4] = assay: Compound was tested in vivo for its ability to inhibit spontaneous locomotor activity of mice after intracerebroventricular administration; type: functional; conditions: central
Mus musculus [5] = assay: Compound was tested in vivo for its ability to inhibit spontaneous locomotor activity of mice; intraperitoneal administration; type: functional; conditions: ip
Mus musculus [6] = assay: Analgesic activity was evaluated in the acetic acid induced stretching paradigm after subcutaneous administration; type: functional; conditions: sc
HT-29 = assay: Compound was tested in vitro to mobilize calcium from HT-29 cells; type: functional, cell-based; conditions: Homo sapiens

T1 sequence (O88319 whole entry): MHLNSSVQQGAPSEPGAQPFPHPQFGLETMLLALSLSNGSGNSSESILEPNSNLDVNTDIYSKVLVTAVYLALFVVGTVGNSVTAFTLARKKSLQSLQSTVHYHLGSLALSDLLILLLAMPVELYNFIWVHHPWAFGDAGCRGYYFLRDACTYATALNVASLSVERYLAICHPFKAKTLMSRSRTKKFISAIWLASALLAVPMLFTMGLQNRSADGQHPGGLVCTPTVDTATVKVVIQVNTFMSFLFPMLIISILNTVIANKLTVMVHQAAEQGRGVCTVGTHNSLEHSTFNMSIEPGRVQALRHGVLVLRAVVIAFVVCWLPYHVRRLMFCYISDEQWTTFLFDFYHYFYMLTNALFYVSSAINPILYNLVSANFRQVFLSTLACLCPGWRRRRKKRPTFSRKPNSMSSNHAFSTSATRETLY

| Ki [3] | Compound | ED50 (Mus musculus [2]) | also measured |
| --- | --- | --- | --- |
| – | CN[C@@H](CCCNC(=N)N)C(=O)N[C@@H](CCCCN)C(=O)N1CCC[C@H]1C(=O)N[C@@H](Cc1c[nH]c2ccccc12)C(=O)N[C@H](C(=O)N[C@@H](CC(C)C)C(=O)O)C(C)(C)C (H-[NMeR]KPW[Tle]L-OH) | – | Ki [1]: 0.064 nM |
| – | CC[C@H](C)[C@H](NC(=O)[C@H](Cc1ccc(O)cc1)NC(=O)[C@@H]1CCCN1C(=O)[C@H](CCCCN)NC[C@@H](N)CCCCN)C(=O)N[C@@H](CC(C)C)C(=O)O (H-[X1]PYIL-OH) [listing 1 of 2 here] | > 10 mg/kg | – |
| 3.8 nM | CC(C)C[C@H](NC(=O)[C@@H](NC(=O)[C@H](Cc1c[nH]c2ccccc12)NC(=O)[C@@H]1CCCN1C(=O)C(CCCCN)CCCCN)C(C)(C)C)C(=O)O (X4-PW[Tle]L-OH) [listing 1 of 2 here] | – | – |
| 17.1 nM | CC(C)C[C@H](NC(=O)[C@@H](NC(=O)[C@H](Cc1c[nH]c2ccccc12)NC(=O)[C@@H]1CCCN1C(=O)[C@H](CCCCN)NC[C@@H](N)CCCN=C(N)N)C(C)(C)C)C(=O)O (H-[X3]PW[Tle]L-OH) [listing 1 of 2 here] | – | – |
| – | CC(C)C[C@H](NC(=O)[C@@H](NC(=O)[C@H](Cc1c[nH]c2ccccc12)NC(=O)[C@@H]1CCCN1C(=O)[C@H](CCCCN)NC[C@@H](N)CCCCN)C(C)(C)C)C(=O)O (H-[X1]PW[Tle]L-OH) [listing 1 of 2 here] | 0.14 mg/kg | – |
| 17 nM | CC(C)C[C@H](NC(=O)[C@@H](NC(=O)[C@H](Cc1c[nH]c2ccccc12)NC(=O)[C@@H]1CCCN1C(=O)C(CCCN)CCCN)C(C)(C)C)C(=O)O (X5-PW[Tle]L-OH) [listing 1 of 2 here] | – | – |
| – | CCOC(=O)[C@H](CC(C)C)NC(=O)[C@@H](NC(=O)[C@H](Cc1c[nH]c2ccccc12)NC(=O)[C@@H]1CCCN1C(=O)[C@H](CCCCN)NC[C@@H](N)CCCN=C(N)N)C(C)(C)C (H-[X3]PW[Tle]L-OEt) [listing 1 of 2 here] | – | ED50 (Mus musculus [4]): 1.6 mg/kg; ED50 (Mus musculus [5]): 0.15 mg/kg |
| – | CC(C)C[C@H](NC(=O)[C@@H](NC(=O)[C@H](Cc1c[nH]c2ccccc12)NC(=O)[C@@H]1CCCN1C(=O)[C@H](CCCCN)NC[C@@H](N)CCCN=C(N)N)C(C)(C)C)C(=O)O (H-[X3]PW[Tle]L-OH) [listing 2 of 2 here] | – | ED50 (Mus musculus [6]): 0.3 mg/kg; ED50 (Mus musculus [5]): 0.48 mg/kg |
| – | CC[C@H](C)[C@H](NC(=O)[C@H](Cc1ccc(O)cc1)NC(=O)[C@@H]1CCCN1C(=O)[C@H](CCCNC(=N)N)NC(=O)[C@@H](N)CCCNC(=N)N)C(=O)N[C@@H](CC(C)C)C(=O)O [listing 1 of 2 here] | – | ED50 (Mus musculus [6]): > 10 mg/kg; ED50 (Mus musculus [5]): > 10 mg/kg |
| – | CC(C)C[C@H](NC(=O)[C@@H](NC(=O)[C@H](Cc1ccc(O)cc1)NC(=O)[C@@H]1CCCN1C(=O)[C@H](CCCCN)NC[C@@H](N)CCCCN)C(C)(C)C)C(=O)O (H-[X1]PY[Tle]L-OH) [listing 1 of 2 here] | 0.9 mg/kg | – |
| – | CC(C)C[C@H](NC(=O)[C@@H](NC(=O)[C@H](Cc1c[nH]c2ccccc12)NC(=O)[C@@H]1CCCN1C(=O)C(CCCCN)CCCCN)C(C)(C)C)C(=O)O (X4-PW[Tle]L-OH) [listing 2 of 2 here] | 0.6 mg/kg | – |
| – | CC[C@H](C)[C@H](NC(=O)[C@H](Cc1ccc(O)cc1)NC(=O)[C@@H]1CCCN1C(=O)[C@H](CCCNC(=N)N)NC(=O)[C@@H](N)CCCNC(=N)N)C(=O)N[C@@H](CC(C)C)C(=O)O [listing 2 of 2 here] | – | EC50 (HT-29): 4.21 nM |
| – | CC(C)C[C@H](NC(=O)[C@@H](NC(=O)[C@H](Cc1c[nH]c2ccccc12)NC(=O)[C@@H]1CCCN1C(=O)C(CCCN=C(N)N)CCCN=C(N)N)C(C)(C)C)C(=O)O (X7-PW[Tle]L-OH) | 1.5 mg/kg | – |
| 31.2 nM | CCOC(=O)[C@H](CC(C)C)NC(=O)[C@@H](NC(=O)[C@H](Cc1c[nH]c2ccccc12)NC(=O)[C@@H]1CCCN1C(=O)[C@H](CCCCN)NC[C@@H](N)CCCCN)C(C)(C)C (H-[X1]PW[Tle]L-OEt) [listing 1 of 2 here] | – | EC50 (HT-29): 4500 nM |
| 27 nM | CCOC(=O)[C@H](CC(C)C)NC(=O)[C@@H](NC(=O)[C@H](Cc1c[nH]c2ccccc12)NC(=O)[C@@H]1CCCN1C(=O)[C@H](CCCCN)NCCCCCCN)C(C)(C)C (H-[X2]PW[Tle]L-OEt) [listing 1 of 2 here] | – | – |
| 0.1 nM | CC(C)C[C@H](NC(=O)[C@@H](NC(=O)[C@H](Cc1c[nH]c2ccccc12)NC(=O)[C@@H]1CCCN1C(=O)C(CCCNC(=N)N)CCCNC(=N)N)C(C)(C)C)C(=O)O (stereo partly drawn) (X6-PW[Tle]L-OH) | – | – |
| 0.06 nM | CC[C@H](C)[C@H](NC(=O)[C@H](Cc1c[nH]c2ccccc12)NC(=O)[C@@H]1CCCN1C(=O)[C@H](CCCCN)NC[C@@H](N)CCCCN)C(=O)N[C@@H](CC(C)C)C(=O)O (H-[X1]PWIL-OH) [listing 1 of 2 here] | – | EC50 (HT-29): 110 nM |
| 60 nM | CC(C)C[C@H](NC(=O)[C@@H](NC(=O)[C@H](Cc1c[nH]c2ccccc12)NC(=O)[C@@H]1CCCN1C(=O)[C@@H](N)CCCCN)C(C)(C)C)C(=O)O (H-KPW[Tle]L-OH) | > 10 mg/kg | – |
| 1.13 nM | CC(C)C[C@H](NC(=O)[C@@H](NC(=O)[C@H](Cc1c[nH]c2ccccc12)NC(=O)[C@@H]1CCCN1C(=O)[C@H](CCCCN)NC[C@@H](N)CCCCN)C(C)(C)C)C(=O)O (H-[X1]PW[Tle]L-OH) [listing 2 of 2 here] | – | EC50 (HT-29): 362 nM |
| – | CC(C)C[C@H](NC(=O)[C@@H](NC(=O)[C@H](Cc1c[nH]c2ccccc12)NC(=O)[C@@H]1CCCN1C(=O)C(CCCN)CCCN)C(C)(C)C)C(=O)O (X5-PW[Tle]L-OH) [listing 2 of 2 here] | 0.5 mg/kg | – |
| 437 nM | CCOC(=O)[C@H](CC(C)C)NC(=O)[C@@H](NC(=O)[C@H](Cc1c[nH]c2ccccc12)NC(=O)[C@@H]1CCCN1C(=O)[C@H](CCCCN)NC[C@@H](N)CCCN=C(N)N)C(C)(C)C (H-[X3]PW[Tle]L-OEt) [listing 2 of 2 here] | – | – |
| – | CCOC(=O)[C@H](CC(C)C)NC(=O)[C@@H](NC(=O)[C@H](Cc1c[nH]c2ccccc12)NC(=O)[C@@H]1CCCN1C(=O)[C@H](CCCCN)NC[C@@H](N)CCCCN)C(C)(C)C (H-[X1]PW[Tle]L-OEt) [listing 2 of 2 here] | 0.21 mg/kg | – |
| – | CCOC(=O)[C@H](CC(C)C)NC(=O)[C@@H](NC(=O)[C@H](Cc1c[nH]c2ccccc12)NC(=O)[C@@H]1CCCN1C(=O)[C@H](CCCCN)NCCCCCCN)C(C)(C)C (H-[X2]PW[Tle]L-OEt) [listing 2 of 2 here] | – | ED50 (Mus musculus [6]): 0.05 mg/kg; ED50 (Mus musculus [5]): 0.3 mg/kg |
| – | CC[C@H](C)[C@H](NC(=O)[C@H](Cc1c[nH]c2ccccc12)NC(=O)[C@@H]1CCCN1C(=O)[C@H](CCCCN)NC[C@@H](N)CCCCN)C(=O)N[C@@H](CC(C)C)C(=O)O (H-[X1]PWIL-OH) [listing 2 of 2 here] | 6.3 mg/kg | – |
| 0.4 nM | CC(C)C[C@H](NC(=O)[C@@H](NC(=O)[C@H](Cc1ccc(O)cc1)NC(=O)[C@@H]1CCCN1C(=O)[C@H](CCCCN)NC[C@@H](N)CCCCN)C(C)(C)C)C(=O)O (H-[X1]PY[Tle]L-OH) [listing 2 of 2 here] | – | EC50 (HT-29): 512 nM |

| Compound | Ki [3] | ED50 (Mus musculus [2]) | also measured |
| --- | --- | --- | --- |
| CC[C@H](C)[C@H](NC(=O)[C@H](Cc1ccc(O)cc1)NC(=O)[C@@H]1CCCN1C(=O)[C@H](CCCCN)NC[C@@H](N)CCCCN)C(=O)N[C@@H](CC(C)C)C(=O)O (H-[X1]PYIL-OH) [listing 2 of 2 here] | 0.15 nM | – | – |
